Reference: US20210403485A1, “PYRAZOLOPYRIMIDINE DERIVATIVE AS SELECTIVE TRK INHIBITOR” (SHANDONG LUYE PHARMACEUTICAL CO., LTD., priority 2018, published 2021)

Experiments:
ALK = target: T1, ALK (Homo sapiens, UniProt Q9UM73); assay: Kinase inhibitory activity (33P-ATP, filtration-binding method, Reaction Biology Corp.); format: biochemical
T1 construct: purchased Reaction Biology Corp
Method in brief: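 Radiometric kinase assay: enzyme-compound mixture preincubated 20 minutes at room temperature, then reaction started with ^33P-ATP and run 120 minutes at room temperature. Filtration-binding readout. Activity expressed relative to DMSO control; IC50 from fitted dose-response curves.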

Ba/F3 SLC34A2-ROS1-WT = target: T2, Ba/F3 SLC34A2-ROS1-WT (Homo sapiens, UniProt P08922); assay: Inhibitory activity against cell proliferation (CellTiter-Glo, 72 hours); format: cell-based; conditions: read-out: Half maximal inhibitory concentration IC50 of cells, Ba/F3 SLC34A2-ROS1-WT
T2 construct: fused on or other part: N-terminal part of SLC34A2 as fusion partner (part of the key); O95436 (Sodium-dependent phosphate transport protein 2B)
Method in brief: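 Log-phase Ba/F3 cells (trypan blue viability above 90%) were treated in triplicate with a 9-point, 3-fold compound series. ATP-dependent luminescence was read after CellTiter-Glo addition, and IC50 values came from nonlinear sigmoidal dose-response fits.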

BaF3 ETV6-NTRK3-G623R = target: T3, BaF3 ETV6-NTRK3-G623R (Homo sapiens, UniProt Q16288, G623R, cells depend on it); assay: as above; format: cell-based; conditions: read-out: Half maximal inhibitory concentration IC50 of cells, BaF3 ETV6-NTRK3-G623R
T3 construct: fused on or other part: N-terminal part of ETV6 (TEL) as fusion partner (part of the key); P41212 (Transcription factor ETV6)
Method in brief: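 Ba/F3 stable fusion lines were seeded at 5000 cells/well (viability >90% by trypan blue) and allowed to settle overnight at 37 °C, 5% CO2. Compounds were then added as a 9-point, 3-fold series from a 10-fold working solution with a top concentration of 10 μM, in triplicate. IC50 values came from nonlinear sigmoidal fits of luminescence.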

Ba/F3 ETV6-NTRK3 cells = assay: Efficacy test in animals: subcutaneous xenograft, intragastric administration; format: in vivo, nude mice; conditions: for TGI (tumor growth inhibition rate): day of dissection; for Tumor inhibition rate (by tumor weight) / Tumor weight: end of the test
Protocol: (§1) Cells in the logarithmic growth phase were collected and resuspended in serum-free medium to a cell concentration of 2-4×10^7 cells/mL. An equal volume of matrigel was added to the cell suspension to achieve a final cell concentration of 1-2×10^7 cells/mL. 0.2 mL of tumor cell suspension was subcutaneously inoculated at the scapula of each nude mouse with the inoculation amount of 2-4×10^6 cells/mouse to prepare the animal models.

[1] = system: Ba/F3 ETV6-NTRK3-G623R cells; assay: as above; format: in vivo, nude mice; conditions: for TGI (tumor growth inhibition rate): day of dissection; for Tumor inhibition rate (by tumor weight) / Tumor weight: end of the test
Protocol: as §1

T1 sequence (Q9UM73 19-1620): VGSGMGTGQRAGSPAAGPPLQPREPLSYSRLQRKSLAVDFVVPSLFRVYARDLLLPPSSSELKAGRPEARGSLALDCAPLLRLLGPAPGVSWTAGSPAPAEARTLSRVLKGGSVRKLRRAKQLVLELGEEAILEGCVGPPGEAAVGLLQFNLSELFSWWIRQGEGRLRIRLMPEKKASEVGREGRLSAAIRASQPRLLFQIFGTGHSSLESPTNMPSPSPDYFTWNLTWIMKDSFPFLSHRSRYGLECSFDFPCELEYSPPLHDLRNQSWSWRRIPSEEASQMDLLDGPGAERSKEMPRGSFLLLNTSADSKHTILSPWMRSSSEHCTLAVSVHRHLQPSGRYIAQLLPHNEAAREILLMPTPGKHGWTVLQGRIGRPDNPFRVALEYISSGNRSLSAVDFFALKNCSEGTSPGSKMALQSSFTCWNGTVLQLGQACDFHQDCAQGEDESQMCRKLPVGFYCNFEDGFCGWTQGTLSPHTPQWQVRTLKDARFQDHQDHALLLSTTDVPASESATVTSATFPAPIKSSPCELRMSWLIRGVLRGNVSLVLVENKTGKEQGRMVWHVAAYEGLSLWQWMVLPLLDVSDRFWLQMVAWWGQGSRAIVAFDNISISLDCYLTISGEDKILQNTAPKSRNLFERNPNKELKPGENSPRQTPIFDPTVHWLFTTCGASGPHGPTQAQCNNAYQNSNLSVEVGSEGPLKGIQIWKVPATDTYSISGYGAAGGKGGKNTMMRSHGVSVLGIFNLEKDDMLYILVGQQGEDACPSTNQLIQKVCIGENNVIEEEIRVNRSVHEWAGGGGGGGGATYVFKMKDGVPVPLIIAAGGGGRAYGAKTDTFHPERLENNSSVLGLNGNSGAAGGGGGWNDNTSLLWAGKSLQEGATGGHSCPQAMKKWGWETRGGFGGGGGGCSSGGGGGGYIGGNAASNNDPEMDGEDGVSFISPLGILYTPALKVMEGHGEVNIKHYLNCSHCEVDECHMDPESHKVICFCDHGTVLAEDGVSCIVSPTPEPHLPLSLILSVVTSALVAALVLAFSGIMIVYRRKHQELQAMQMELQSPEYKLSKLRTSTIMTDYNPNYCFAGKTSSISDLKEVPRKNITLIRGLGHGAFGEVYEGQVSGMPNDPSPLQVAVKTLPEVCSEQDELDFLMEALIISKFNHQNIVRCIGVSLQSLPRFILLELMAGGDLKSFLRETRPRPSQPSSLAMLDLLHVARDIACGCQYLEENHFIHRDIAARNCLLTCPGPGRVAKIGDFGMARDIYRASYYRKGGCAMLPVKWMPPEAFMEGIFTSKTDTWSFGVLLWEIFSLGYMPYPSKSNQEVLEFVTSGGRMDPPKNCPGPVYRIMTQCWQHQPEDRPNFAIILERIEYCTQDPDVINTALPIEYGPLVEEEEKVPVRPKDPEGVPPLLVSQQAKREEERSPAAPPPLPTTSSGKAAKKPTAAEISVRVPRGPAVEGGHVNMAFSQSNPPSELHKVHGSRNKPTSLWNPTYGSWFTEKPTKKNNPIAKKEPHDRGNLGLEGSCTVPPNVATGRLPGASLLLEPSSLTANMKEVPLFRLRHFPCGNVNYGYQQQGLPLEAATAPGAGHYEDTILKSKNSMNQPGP
T3 sequence (Q16288 whole entry G623R, the tested form may be a part): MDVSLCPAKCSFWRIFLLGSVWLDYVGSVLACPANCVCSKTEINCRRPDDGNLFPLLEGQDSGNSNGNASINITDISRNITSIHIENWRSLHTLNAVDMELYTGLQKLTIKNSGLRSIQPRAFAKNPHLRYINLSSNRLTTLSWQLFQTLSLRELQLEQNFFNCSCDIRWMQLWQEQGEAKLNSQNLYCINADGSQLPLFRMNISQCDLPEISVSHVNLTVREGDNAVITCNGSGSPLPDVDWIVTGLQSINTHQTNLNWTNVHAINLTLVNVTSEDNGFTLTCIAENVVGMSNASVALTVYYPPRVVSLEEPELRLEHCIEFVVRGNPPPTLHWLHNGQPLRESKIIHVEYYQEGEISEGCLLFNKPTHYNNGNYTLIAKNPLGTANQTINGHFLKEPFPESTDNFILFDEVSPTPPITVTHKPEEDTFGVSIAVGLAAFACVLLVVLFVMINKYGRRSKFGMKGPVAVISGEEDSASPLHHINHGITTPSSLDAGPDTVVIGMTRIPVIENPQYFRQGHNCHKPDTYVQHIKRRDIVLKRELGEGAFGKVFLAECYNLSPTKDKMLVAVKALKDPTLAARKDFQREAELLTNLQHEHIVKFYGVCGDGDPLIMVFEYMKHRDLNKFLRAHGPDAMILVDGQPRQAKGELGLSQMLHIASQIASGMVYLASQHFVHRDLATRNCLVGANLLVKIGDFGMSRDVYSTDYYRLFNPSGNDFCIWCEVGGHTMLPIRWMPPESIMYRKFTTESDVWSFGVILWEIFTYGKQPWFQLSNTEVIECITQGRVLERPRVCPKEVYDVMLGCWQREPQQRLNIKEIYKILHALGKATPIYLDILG
T2 sequence (P08922 whole entry, stated change not applied, the tested form may be a part): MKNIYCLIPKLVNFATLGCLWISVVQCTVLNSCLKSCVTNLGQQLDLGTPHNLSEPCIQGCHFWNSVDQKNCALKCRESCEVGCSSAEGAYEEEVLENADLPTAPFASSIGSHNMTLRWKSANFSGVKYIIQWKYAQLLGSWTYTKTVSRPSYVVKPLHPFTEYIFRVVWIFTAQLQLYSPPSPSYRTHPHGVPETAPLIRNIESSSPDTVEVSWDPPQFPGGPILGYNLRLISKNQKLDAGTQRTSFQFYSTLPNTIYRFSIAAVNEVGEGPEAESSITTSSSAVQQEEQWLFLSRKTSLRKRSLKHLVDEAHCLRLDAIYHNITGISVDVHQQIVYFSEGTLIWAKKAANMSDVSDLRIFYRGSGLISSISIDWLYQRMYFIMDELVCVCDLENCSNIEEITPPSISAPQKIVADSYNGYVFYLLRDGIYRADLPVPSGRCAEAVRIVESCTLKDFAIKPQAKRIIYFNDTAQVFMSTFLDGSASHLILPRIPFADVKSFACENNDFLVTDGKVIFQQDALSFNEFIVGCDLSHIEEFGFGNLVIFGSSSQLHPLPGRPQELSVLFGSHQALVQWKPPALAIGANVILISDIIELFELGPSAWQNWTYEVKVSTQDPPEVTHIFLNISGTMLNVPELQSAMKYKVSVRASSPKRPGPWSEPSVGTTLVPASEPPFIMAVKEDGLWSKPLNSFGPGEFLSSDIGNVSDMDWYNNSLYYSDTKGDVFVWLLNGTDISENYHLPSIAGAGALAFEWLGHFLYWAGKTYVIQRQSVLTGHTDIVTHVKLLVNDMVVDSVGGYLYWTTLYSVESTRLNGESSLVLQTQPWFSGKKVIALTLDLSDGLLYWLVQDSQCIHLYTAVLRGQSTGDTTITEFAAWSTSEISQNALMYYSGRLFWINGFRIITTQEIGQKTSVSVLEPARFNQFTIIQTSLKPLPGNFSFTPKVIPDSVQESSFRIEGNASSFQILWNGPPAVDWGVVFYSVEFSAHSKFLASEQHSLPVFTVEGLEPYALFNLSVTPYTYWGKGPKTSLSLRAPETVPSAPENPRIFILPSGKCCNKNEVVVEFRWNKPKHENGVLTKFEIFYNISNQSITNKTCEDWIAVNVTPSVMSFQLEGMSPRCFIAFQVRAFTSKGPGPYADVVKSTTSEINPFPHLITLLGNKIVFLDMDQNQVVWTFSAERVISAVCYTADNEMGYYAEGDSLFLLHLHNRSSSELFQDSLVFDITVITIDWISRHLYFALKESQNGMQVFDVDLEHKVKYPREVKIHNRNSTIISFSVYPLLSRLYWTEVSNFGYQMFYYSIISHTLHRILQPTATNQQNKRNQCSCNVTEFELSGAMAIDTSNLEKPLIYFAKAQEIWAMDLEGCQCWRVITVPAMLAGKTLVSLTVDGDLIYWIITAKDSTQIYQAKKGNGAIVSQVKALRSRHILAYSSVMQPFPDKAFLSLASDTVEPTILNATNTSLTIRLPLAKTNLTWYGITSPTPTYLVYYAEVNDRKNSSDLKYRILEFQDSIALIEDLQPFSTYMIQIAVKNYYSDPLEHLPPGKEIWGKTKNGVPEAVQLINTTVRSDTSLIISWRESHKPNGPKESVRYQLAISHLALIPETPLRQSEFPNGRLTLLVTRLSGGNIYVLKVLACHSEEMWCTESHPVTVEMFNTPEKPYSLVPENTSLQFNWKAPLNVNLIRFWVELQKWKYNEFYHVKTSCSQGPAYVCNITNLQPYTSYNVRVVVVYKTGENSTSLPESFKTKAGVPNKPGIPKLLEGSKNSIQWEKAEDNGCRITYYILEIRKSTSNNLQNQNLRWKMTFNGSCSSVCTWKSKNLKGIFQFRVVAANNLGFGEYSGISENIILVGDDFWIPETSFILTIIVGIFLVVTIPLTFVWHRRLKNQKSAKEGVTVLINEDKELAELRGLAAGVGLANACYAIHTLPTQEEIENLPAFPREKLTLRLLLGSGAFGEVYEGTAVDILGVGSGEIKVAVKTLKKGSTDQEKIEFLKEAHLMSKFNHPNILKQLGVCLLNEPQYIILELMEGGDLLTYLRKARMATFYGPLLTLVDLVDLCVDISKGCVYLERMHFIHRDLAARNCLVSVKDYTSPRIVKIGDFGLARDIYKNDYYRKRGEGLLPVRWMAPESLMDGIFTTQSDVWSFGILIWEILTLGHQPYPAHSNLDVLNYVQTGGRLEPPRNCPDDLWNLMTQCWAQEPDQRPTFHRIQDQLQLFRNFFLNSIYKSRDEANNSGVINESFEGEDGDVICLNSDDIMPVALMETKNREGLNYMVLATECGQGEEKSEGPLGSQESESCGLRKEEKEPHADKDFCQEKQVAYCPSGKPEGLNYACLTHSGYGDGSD

## O=C1NC2(CC2)COc2ncc(F)cc2C2COCCN2c2ccn3ncc1c3n2 (single isomer, unassigned) [WX001B]
ALK
  IC50: 182 nM
Ba/F3 SLC34A2-ROS1-WT
  GI50: 64.2 nM
BaF3 ETV6-NTRK3-G623R
  GI50: 2.3 nM
Ba/F3 ETV6-NTRK3 cells; 2.5-20 mg/kg
  Inhibition of growth of subcutaneous xenografts: in a dose-dependent manner
Ba/F3 ETV6-NTRK3 cells; Day 0, 2.5 mg/kg bid
  Relative tumor proliferation rate T/C: 100.00%
  Tumor volume: 303.54 ± 48.83 mm^3
Ba/F3 ETV6-NTRK3 cells; Day 0, 5 mg/kg bid
  Relative tumor proliferation rate T/C: 100.00%
  Tumor volume: 303.26 ± 50.47 mm^3
Ba/F3 ETV6-NTRK3 cells; Day 0, 10 mg/kg bid
  Relative tumor proliferation rate T/C: 100.00%
  Tumor volume: 303.14 ± 45.09 mm^3
Ba/F3 ETV6-NTRK3 cells; Day 0, 20 mg/kg bid
  Relative tumor proliferation rate T/C: 100.00%
  Tumor volume: 303.47 ± 45.79 mm^3
Ba/F3 ETV6-NTRK3 cells; Day 3, 2.5 mg/kg bid
  Relative tumor proliferation rate T/C: 42.59%
  Tumor volume: 360.24 ± 88.80 mm^3
Ba/F3 ETV6-NTRK3 cells; Day 3, 5 mg/kg bid
  Relative tumor proliferation rate T/C: 43.90%
  Tumor volume: 371.36 ± 111.74 mm^3
Ba/F3 ETV6-NTRK3 cells; Day 3, 10 mg/kg bid
  Relative tumor proliferation rate T/C: 30.18%
  Tumor volume: 255.24 ± 87.04 mm^3
Ba/F3 ETV6-NTRK3 cells; Day 3, 20 mg/kg bid
  Relative tumor proliferation rate T/C: 31.16%
  Tumor volume: 263.60 ± 85.49 mm^3
Ba/F3 ETV6-NTRK3 cells; Day 5, 2.5 mg/kg bid
  Relative tumor proliferation rate T/C: 29.79%
  Tumor volume: 376.59 ± 84.87 mm^3
Ba/F3 ETV6-NTRK3 cells; Day 5, 5 mg/kg bid
  Relative tumor proliferation rate T/C: 22.33%
  Tumor volume: 282.31 ± 46.30 mm^3
Ba/F3 ETV6-NTRK3 cells; Day 5, 10 mg/kg bid
  Relative tumor proliferation rate T/C: 19.15%
  Tumor volume: 242.09 ± 78.53 mm^3
Ba/F3 ETV6-NTRK3 cells; Day 5, 20 mg/kg bid
  Relative tumor proliferation rate T/C: 22.72%
  Tumor volume: 287.22 ± 96.26 mm^3
Ba/F3 ETV6-NTRK3 cells; Day 7, 2.5 mg/kg bid
  Relative tumor proliferation rate T/C: 18.12%
  Tumor volume: 388.09 ± 100.42 mm^3
Ba/F3 ETV6-NTRK3 cells; Day 7, 5 mg/kg bid
  Relative tumor proliferation rate T/C: 16.77%
  Tumor volume: 353.35 ± 109.82 mm^3
Ba/F3 ETV6-NTRK3 cells; Day 7, 10 mg/kg bid
  Relative tumor proliferation rate T/C: 12.50%
  Tumor volume: 263.53 ± 134.53 mm^3
Ba/F3 ETV6-NTRK3 cells; Day 7, 20 mg/kg bid
  Relative tumor proliferation rate T/C: 9.56%
  Tumor volume: 201.43 ± 135.76 mm^3
Ba/F3 ETV6-NTRK3 cells; Day 9, 2.5 mg/kg bid
  Relative tumor proliferation rate T/C: 18.22%
  Tumor volume: 499.09 ± 161.54 mm^3
Ba/F3 ETV6-NTRK3 cells; Day 9, 5 mg/kg bid
  Relative tumor proliferation rate T/C: 16.04%
  Tumor volume: 439.46 ± 222.47 mm^3
Ba/F3 ETV6-NTRK3 cells; Day 9, 10 mg/kg bid
  Relative tumor proliferation rate T/C: 7.73%
  Tumor volume: 211.85 ± 87.87 mm^3
Ba/F3 ETV6-NTRK3 cells; Day 9, 20 mg/kg bid
  Relative tumor proliferation rate T/C: 4.91%
  Tumor volume: 134.49 ± 117.51 mm^3
Ba/F3 ETV6-NTRK3 cells; Day 11, 2.5 mg/kg bid
  Relative tumor proliferation rate T/C: 15.67%
  Tumor volume: 590.74 ± 266.98 mm^3
Ba/F3 ETV6-NTRK3 cells; Day 11, 5 mg/kg bid
  Relative tumor proliferation rate T/C: 8.73%
  Tumor volume: 328.91 ± 190.07 mm^3
Ba/F3 ETV6-NTRK3 cells; Day 11, 10 mg/kg bid
  Relative tumor proliferation rate T/C: 4.82%
  Tumor volume: 181.69 ± 121.62 mm^3
Ba/F3 ETV6-NTRK3 cells; Day 11, 20 mg/kg bid
  Relative tumor proliferation rate T/C: 2.89%
  Tumor volume: 109.00 ± 116.94 mm^3
Ba/F3 ETV6-NTRK3 cells; 2.5 mg/kg bid
  TGI (tumor growth inhibition rate): 84.33%
  Tumor inhibition rate (by tumor weight): 85.47%
  Tumor weight: 0.25 ± 0.15 g
Ba/F3 ETV6-NTRK3 cells; 5 mg/kg bid
  TGI (tumor growth inhibition rate): 91.27%
  Tumor inhibition rate (by tumor weight): 89.51%
  Tumor weight: 0.18 ± 0.08 g
Ba/F3 ETV6-NTRK3 cells; 10 mg/kg bid
  TGI (tumor growth inhibition rate): 95.18%
  Tumor inhibition rate (by tumor weight): 93.42%
  Tumor weight: 0.12 ± 0.10 g
Ba/F3 ETV6-NTRK3 cells; 20 mg/kg bid
  TGI (tumor growth inhibition rate): 97.11%
  Tumor inhibition rate (by tumor weight): 96.47%
  Tumor weight: 0.06 ± 0.03 g
[1]; 2.5-20 mg/kg
  Inhibition of growth of subcutaneous xenografts: in a dose-dependent manner
[1]; Day 0, 2.5 mg/kg bid
  Relative tumor proliferation rate T/C: 100.00%
  Tumor volume: 200.40 ± 33.16 mm^3
[1]; Day 0, 5 mg/kg bid
  Relative tumor proliferation rate T/C: 100.00%
  Tumor volume: 200.35 ± 32.62 mm^3
[1]; Day 0, 10 mg/kg bid
  Relative tumor proliferation rate T/C: 100.00%
  Tumor volume: 199.55 ± 34.92 mm^3
[1]; Day 0, 20 mg/kg bid
  Relative tumor proliferation rate T/C: 100.00%
  Tumor volume: 199.51 ± 34.71 mm^3
[1]; Day 3, 2.5 mg/kg bid
  Relative tumor proliferation rate T/C: 64.91%
  Tumor volume: 392.17 ± 91.44 mm^3
[1]; Day 3, 5 mg/kg bid
  Relative tumor proliferation rate T/C: 56.84%
  Tumor volume: 343.40 ± 96.52 mm^3
[1]; Day 3, 10 mg/kg bid
  Relative tumor proliferation rate T/C: 35.78%
  Tumor volume: 216.15 ± 52.64 mm^3
[1]; Day 3, 20 mg/kg bid
  Relative tumor proliferation rate T/C: 32.65%
  Tumor volume: 197.28 ± 52.49 mm^3
[1]; Day 5, 2.5 mg/kg bid
  Relative tumor proliferation rate T/C: 42.80%
  Tumor volume: 507.81 ± 127.36 mm^3
[1]; Day 5, 5 mg/kg bid
  Relative tumor proliferation rate T/C: 32.50%
  Tumor volume: 385.61 ± 63.66 mm^3
[1]; Day 5, 10 mg/kg bid
  Relative tumor proliferation rate T/C: 19.67%
  Tumor volume: 233.42 ± 49.88 mm^3
[1]; Day 5, 20 mg/kg bid
  Relative tumor proliferation rate T/C: 13.62%
  Tumor volume: 161.67 ± 45.52 mm^3
[1]; Day 7, 2.5 mg/kg bid
  Relative tumor proliferation rate T/C: 36.00%
  Tumor volume: 689.34 ± 174.38 mm^3
[1]; Day 7, 5 mg/kg bid
  Relative tumor proliferation rate T/C: 29.86%
  Tumor volume: 571.74 ± 105.62 mm^3
[1]; Day 7, 10 mg/kg bid
  Relative tumor proliferation rate T/C: 15.44%
  Tumor volume: 295.60 ± 218.67 mm^3
[1]; Day 7, 20 mg/kg bid
  Relative tumor proliferation rate T/C: 9.61%
  Tumor volume: 184.02 ± 76.71 mm^3
[1]; Day 9, 2.5 mg/kg bid
  Relative tumor proliferation rate T/C: 34.48%
  Tumor volume: 862.41 ± 275.13 mm^3
[1]; Day 9, 5 mg/kg bid
  Relative tumor proliferation rate T/C: 24.33%
  Tumor volume: 608.56 ± 193.58 mm^3
[1]; Day 9, 10 mg/kg bid
  Relative tumor proliferation rate T/C: 11.02%
  Tumor volume: 275.49 ± 176.66 mm^3
[1]; Day 9, 20 mg/kg bid
  Relative tumor proliferation rate T/C: 6.67%
  Tumor volume: 166.80 ± 119.15 mm^3
[1]; Day 11, 2.5 mg/kg bid
  Relative tumor proliferation rate T/C: 31.05%
  Tumor volume: 1079.47 ± 236.62 mm^3
[1]; Day 11, 5 mg/kg bid
  Relative tumor proliferation rate T/C: 18.40%
  Tumor volume: 639.67 ± 102.59 mm^3
[1]; Day 11, 10 mg/kg bid
  Relative tumor proliferation rate T/C: 8.91%
  Tumor volume: 309.67 ± 199.23 mm^3
[1]; Day 11, 20 mg/kg bid
  Relative tumor proliferation rate T/C: 4.89%
  Tumor volume: 169.93 ± 190.60 mm^3
[1]; 2.5 mg/kg bid
  TGI (tumor growth inhibition rate): 68.95%
  Tumor inhibition rate (by tumor weight): 68.72%
  Tumor weight: 0.54 ± 0.24 g
[1]; 5 mg/kg bid
  TGI (tumor growth inhibition rate): 81.60%
  Tumor weight: 0.44 ± 0.13 g
[1]; 10 mg/kg bid
  TGI (tumor growth inhibition rate): 91.09%
  Tumor inhibition rate (by tumor weight): 92.90%
  Tumor weight: 0.12 ± 0.11 g
[1]; 20 mg/kg bid
  TGI (tumor growth inhibition rate): 95.11%
  Tumor inhibition rate (by tumor weight): 95.75%
  Tumor weight: 0.07 ± 0.06 g
[1]; 5 mg/kg bid, 5 mg/kg
  Tumor inhibition rate (by tumor weight): 74.12%
